What is called IC50 is the concentration at which inhibition is half-maximal. By EC50 is commonly meant the concentration at which the effect is half-maximal.

IC50 and EC50 data for 27 molecules are collected here from US12202844B2, “MAP4K1 inhibitors” (Blueprint Medicines Corporation, priority 2021, dated 2025).

One assay addresses T1, MAP4K1 (HPK1) (Homo sapiens, UniProt Q92918).
T1 construct: purchased Invitrogen
As to the kind of experiment: Inhibition of MAP4K1 biochemical enzymatic activity (EZReader 2 electrophoretic mobility shift). Conditions: HPK1 (Invitrogen), S6K2tide 1.5 μM, 120 min; ATP 26 μM or 1000 μM (not given). The procedure, abridged:
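Untreated enzyme (0.1-15 nM) was incubated with 1.5 μM fluorescent peptide and 20-1000 μM ATP (apparent Km or 1 mM) in HEPES pH 7.5, MgCl2, DTT, Brij 35 at 25° C. for 60-180 min, with 1% DMSO and a 10-point 4-fold compound series. After an EDTA stop, product/substrate peptide peak ratio was read by mobility shift.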

Assay [1] concerns Primary T Cell (expanded CD3+ T cells). As to the kind of experiment: T cell enhancement of cytokines: IL2 measurement (HTRF) in stimulated expanded CD3+ T cells. As to conditions: Homo sapiens, T-cell, 24 h, plate-bound anti-CD3 and soluble anti-CD28, 24 h, IL2 by HTRF; read-out: IL-2 Primary T Cell EC50. The class given is cell-based, human. The procedure, abridged:
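Healthy-donor T cells (95-98% CD3+) expanded 10-14 days with IL2 and CD3/CD28 beads, then cryopreserved. 100K cells/well in X-VIVO 10 serum-free medium were stimulated with plate-bound anti-CD3 plus soluble anti-CD28 with compound at various concentrations for 24 h. Secreted IL2 measured by HTRF after 24 h antibody incubation.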

T1 sequence (Q92918 whole entry): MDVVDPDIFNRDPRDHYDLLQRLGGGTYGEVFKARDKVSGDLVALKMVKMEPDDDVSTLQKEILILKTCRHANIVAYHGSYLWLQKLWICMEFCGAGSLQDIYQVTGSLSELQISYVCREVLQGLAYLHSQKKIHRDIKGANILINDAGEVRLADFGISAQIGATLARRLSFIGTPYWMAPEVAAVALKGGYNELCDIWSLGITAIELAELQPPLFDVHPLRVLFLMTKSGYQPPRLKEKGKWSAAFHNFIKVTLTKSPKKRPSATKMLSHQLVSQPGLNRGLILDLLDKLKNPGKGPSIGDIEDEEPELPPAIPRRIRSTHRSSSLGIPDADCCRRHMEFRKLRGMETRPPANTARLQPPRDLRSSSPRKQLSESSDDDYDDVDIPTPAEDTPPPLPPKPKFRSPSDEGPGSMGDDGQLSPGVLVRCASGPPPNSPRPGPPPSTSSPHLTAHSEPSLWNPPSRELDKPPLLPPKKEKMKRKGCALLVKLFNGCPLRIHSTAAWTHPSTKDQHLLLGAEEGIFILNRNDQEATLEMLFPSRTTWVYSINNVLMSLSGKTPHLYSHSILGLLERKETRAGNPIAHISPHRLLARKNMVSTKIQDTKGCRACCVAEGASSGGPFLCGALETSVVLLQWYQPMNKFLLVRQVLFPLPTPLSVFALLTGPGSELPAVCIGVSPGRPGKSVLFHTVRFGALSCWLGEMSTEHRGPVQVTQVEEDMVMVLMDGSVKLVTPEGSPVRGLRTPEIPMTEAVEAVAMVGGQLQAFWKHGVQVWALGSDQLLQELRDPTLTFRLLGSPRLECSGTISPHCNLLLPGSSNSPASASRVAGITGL

With `CCS(=O)(=O)[C@H]1C[C@@H](Oc2ncc(C(C)(C)N)c3cc(Nc4ccc5c(n4)[C@@H](C)[C@H](C)OC5=O)ncc23)C1` [Compound 39, (7S,8R)-2-((5-(2-Aminopropan-2-yl)-8-((cis)-3-(ethylsulfonyl)cyclobutoxy)-2,7-naphthyridin-3-yl)amino)-7,8-dimethyl-7,8-dihydro-5H-pyrano[4,3-b]pyridin-5-one], the IC50 on MAP4K1 (HPK1) came to 0.13 nM. Further, the EC50 in assay [1] was determined as 11 nM.
For `C[C@@H]1c2nc(Nc3cc4c(C(C)(C)N)cnc(O[C@H]5C[C@@H](S(C)(=O)=O)C5)c4cn3)ccc2C(=O)OC1(C)C` [Compound 42, (R)-2-((5-(2-Aminopropan-2-yl)-8-(cis-3-(methylsulfonyl)cyclobutoxy)-2,7-naphthyridin-3-yl)amino)-7,7,8-trimethyl-7,8-dihydro-5H-pyrano[4,3-b]pyridin-5-one] the same measures were 0.09 nM and 9 nM.
On to `C[C@H](C[C@@H](C)S(C)(=O)=O)Oc1ncc(C(C)(C)N)c2cc(Nc3ccc4c(n3)[C@@H](C)[C@H](C)OC4=O)ncc12` [Compound 51], for which the concentration for half-maximal inhibition (IC50) at MAP4K1 (HPK1) worked out at 0.15 nM. Further, the EC50 in assay [1] turned out to be 25 nM.
For `CC[C@@](C)(N)c1cnc(O[C@H](C)CCS(C)(=O)=O)c2cnc(Nc3ccc4c(n3)[C@@H](C)[C@H](C)OC4=O)cc12` [Compound 52, (7S,8R)-2-((5-((R)-2-Aminobutan-2-yl)-8-(((R)-4-(methylsulfonyl)butan-2-yl)oxy)-2,7-naphthyridin-3-yl)amino)-7,8-dimethyl-7,8-dihydro-5H-pyrano[4,3-b]pyridin-5-one] the same measures were 0.13 nM and 9 nM.
As for `CC[C@@](C)(N)c1cnc(O[C@@H](C)CCS(C)(=O)=O)c2cnc(Nc3ccc4c(n3)[C@@H](C)[C@H](C)OC4=O)cc12` [Compound 53], the IC50 at MAP4K1 (HPK1) was determined as 0.11 nM. Moreover, the EC50 in assay [1] turned out to be 21 nM.
For the molecule `C[C@@H]1OC(=O)c2ccc(Nc3cc4c([C@](C)(N)C5CC5)cnc(O[C@H]5C[C@@H](S(C)(=O)=O)C5)c4cn3)nc2[C@H]1C` [Compound 60], the IC50 at MAP4K1 (HPK1) turned out to be 0.19 nM. Besides, the EC50 in assay [1] was 10 nM.
Turning to `CCS(=O)(=O)[C@H]1C[C@@H](Oc2ccc(C(C)(C)N)c3cc(Nc4ccc5c(n4)[C@@H](C)C(C)(C)OC5=O)ncc23)C1` [Compound 63], the IC50 on MAP4K1 (HPK1) amounted to 0.09 nM. Besides, the EC50 in assay [1] is 14 nM.
For `CCS(=O)(=O)[C@H]1C[C@@H](Nc2ncc(C(C)(C)N)c3cc(Nc4ccc5c(n4)[C@@H](C)C(C)(C)OC5=O)ncc23)C1` [Compound 64] the same measures were 0.21 nM and 105 nM.
With `C[C@H](CCS(C)(=O)=O)Oc1ncc(C(C)(C)N)c2cc(Nc3ccc4c(n3)C3(CC3)C(C)(C)OC4=O)ncc12` [Compound 67], the IC50 at MAP4K1 (HPK1) is 0.77 nM. Further, the 50% effective concentration (EC50) in assay [1] is 40 nM.
For `CC[C@@](C)(N)c1cnc(O[C@H]2C[C@@H](S(=O)(=O)CC)C2)c2cnc(Nc3ccc4c(n3)[C@@H](C)[C@H](C)OC4=O)cc12` [Compound 77] the same measures were 0.06 nM and 3 nM.
For `CC[C@@](C)(N)c1cnc(O[C@H]2C[C@@H](S(C)(=O)=O)C2)c2cnc(Nc3ccc4c(n3)[C@@H](C)C(C)(C)OC4=O)cc12` [Compound 78] the same measures were 0.14 nM and 7 nM.
On the same counts, the results for `CCS(=O)(=O)[C@H]1C[C@@H](Oc2ncc(C(C)(C)N)c3cc(Nc4ccc5c(n4)[C@@H](C)C(C)(C)OC5=O)ncc23)C1` [Compound 80] are 0.08 nM and 9 nM.
In the case of `C[C@@H]1OC(=O)c2ccc(Nc3cc4c(C(C)(C)N)cnc(O[C@H]5C[C@@H](S(=O)(=O)N(C)C)C5)c4cn3)nc2[C@H]1C` [Compound 81], the IC50 on MAP4K1 (HPK1) was 0.1 nM. In addition, the EC50 in assay [1] amounted to 18 nM.
With `CC[C@@](C)(N)c1cnc(O[C@H](C)C[C@@H](C)S(C)(=O)=O)c2cnc(Nc3ccc4c(n3)CC(C)(C)OC4=O)cc12` [Compound 87], the IC50 at MAP4K1 (HPK1) is 0.13 nM. Besides, the EC50 in assay [1] was 29 nM.
For `CC[C@@](C)(N)c1cnc(O[C@H](C)C[C@@H](C)S(C)(=O)=O)c2cnc(Nc3ccc4c(n3)C(C)(C)COC4=O)cc12` [Compound 88] the same measures were 0.21 nM and 23 nM.
On to `CC[C@@](C)(N)c1cnc(O[C@H](C)C[C@@H](C)S(C)(=O)=O)c2cnc(Nc3ccc4c(n3)[C@@H](C)[C@H](C)OC4=O)cc12` [Compound 90], for which the IC50 at MAP4K1 (HPK1) was determined as 0.11 nM. The EC50 in assay [1] turned out to be 3 nM.
Turning to `C[C@H](C[C@@H](C)S(C)(=O)=O)Oc1ncc(C(C)(C)N)c2cc(Nc3ccc4c(n3)[C@@H](C)C(C)(C)OC4=O)ncc12` [Compound 91], the IC50 on MAP4K1 (HPK1) stood at 0.22 nM. Also, in assay [1], the EC50 came to 24 nM.
In the case of `CC[C@@](C)(N)c1cnc(O[C@H](C)CCS(C)(=O)=O)c2cnc(Nc3ccc4c(n3)[C@@H](C)C(C)(C)OC4=O)cc12` [Compound 94], on MAP4K1 (HPK1), the IC50 turned out to be 0.14 nM. Moreover, the EC50 in assay [1] was 26 nM.
On the same counts, the results for `CC[C@@](C)(N)c1cnc(O[C@@H](C)CCS(C)(=O)=O)c2cnc(Nc3ccc4c(n3)[C@@H](C)C(C)(C)OC4=O)cc12` [Compound 95] are 0.08 nM and 52 nM.
Turning to `C[C@@H]1c2nc(Nc3cc4c(C(C)(C)N)cnc(O[C@H]5C[C@@H](S(=O)(=O)C6CC6)C5)c4cn3)ccc2C(=O)OC1(C)C` [Compound 102], the IC50 at MAP4K1 (HPK1) is 0.14 nM. For the same molecule, the EC50 in assay [1] came to 15 nM.
As for `CC[C@@](C)(N)c1cnc(O[C@H](C)CCS(C)(=O)=O)c2cnc(Nc3ccc4c(n3)C3(CC3)C(C)(C)OC4=O)cc12` [Compound 105], the IC50 on MAP4K1 (HPK1) amounted to 0.37 nM. Moreover, the EC50 in assay [1] was found to be 41 nM.
On the same counts, the results for `CC[C@@](C)(N)c1cnc(O[C@H]2C[C@@H](S(=O)(=O)CC)C2)c2cnc(Nc3ccc4c(n3)[C@@H](C)C(C)(C)OC4=O)cc12` [Compound 117] are 0.05 nM and 6 nM.
As for `C[C@@H]1c2nc(Nc3cc4c(C(C)(C)N)cnc(O[C@H]5C[C@@H](S(=O)(=O)N(C)C)C5)c4cn3)ccc2C(=O)OC1(C)C` [Compound 118], at MAP4K1 (HPK1), the IC50 was determined as 0.11 nM. Moreover, in assay [1], the EC50 turned out to be 27 nM.
In the case of `CCS(=O)(=O)[C@H]1C[C@@H](Oc2ncc([C@](C)(N)COC)c3cc(Nc4ccc5c(n4)[C@@H](C)[C@H](C)OC5=O)ncc23)C1` [Compound 122], on MAP4K1 (HPK1), the IC50 is 0.1 nM. The EC50 in assay [1] amounted to 27 nM.
Turning to `COC[C@@](C)(N)c1cnc(O[C@H]2C[C@@H](S(C)(=O)=O)C2)c2cnc(Nc3ccc4c(n3)[C@@H](C)C(C)(C)OC4=O)cc12` [Compound 123], the IC50 at MAP4K1 (HPK1) came out at 0.16 nM. Moreover, the EC50 in assay [1] amounted to 34 nM.
For `CC[C@@](C)(N)c1cnc(O[C@H](C)C[C@@H](C)S(=O)(=O)CC)c2cnc(Nc3ccc4c(n3)[C@@H](C)[C@H](C)OC4=O)cc12` [Compound 127, (7S,8R)-2-((5-((R)-2-Aminobutan-2-yl)-8-(((2R,4R)-4-(ethylsulfonyl)pentan-2-yl)oxy)-2,7-naphthyridin-3-yl)amino)-7,8-dimethyl-7,8-dihydro-5H-pyrano[4,3-b]pyridin-5-one] the same measures were 0.12 nM and 10 nM.
For `CCS(=O)(=O)[C@H](C)C[C@@H](C)Oc1ncc(C(C)(C)N)c2cc(Nc3ccc4c(n3)[C@@H](C)C(C)(C)OC4=O)ncc12` [Compound 128], at MAP4K1 (HPK1), the IC50 was 0.16 nM. The EC50 in assay [1] was 36 nM.
